Reference: patent publication US20070086949A1, “Method of bioimaging using nanocrystals of fluorescent dyes” (priority 2005, published 2007)

What was measured:
[1] = Size of TPB and perylene nanocrystals in water dispersion; type: physicochemical
Method: Briefly, 200 μl of dye acetone solution (10 mM concentration ) was injected into magnetically stirring water (10 ml). The average size of nanoparticle was estimated to vary from 50 nm to 200 nm depending on the concentration of original organic solution and water temperature. A homogenous dispersion of the dye nanocrystals without any noticeable aggregation or clumps was produced. Optical properties of the prepared nanocrystals were studied using UV-Visible and fluorescence spectroscopy. UV-visible absorption spectra as well as the fluorescence spectra of the nanocrystals were acquired using a Shimadzu 3600 UV spectrometer and a Jobin-Yvon Spectramax fluorimeter. Changes in absorption spectra as well as fluorescence intensity changes (such as quenching) were studied by comparing the spectra of nanocrystals in water with that of organic solution.
For this experiment, perylene was dissolved on DMSO at 1 mM, 10 mM or 100 mM. The nanocrystals were prepared as described in Example 1 by adding to water at 4° C. or 80° C.

[2] = tested on: human cervix carcinoma cell line Hela; assay: Confocal imaging of HeLa cells incubated with dye nanocrystal water dispersion; type: cell-based; settings: confocal microscopy
Method: For cellular imaging, human cervix carcinoma cell line Hela was incubated with the prepared dye dispersion. The cell culture and imaging conditions are described in detail here. Human cervical carcinoma cell line (HeLa) was maintained in Dulbecco's modified eagle medium with 10% FBS according to the manufacturers instructions (American Type Culture Collection, Manassas, Va.). To study the uptake and imaging of HPPH nanocrystals, the cells were trypsinized and resuspended in the corresponding suitable media at a concentration of around 7.5×10^5/ml. 60 μl of this suspension was transferred to each 35 mm culture plate and 2 ml of the corresponding full medium was added. These plates were then placed in an incubator at 37° C. with 5% CO2 (VWR Scientific, model 2400). After 36 hours of incubation, the cells (about 60% confluency) were rinsed with PBS, and 2 ml of the corresponding fresh media was added to the plates. Finally, 50 μl of dye nanocrystals was added and mixed properly. Plates were returned to the incubator (37° C., 5% CO2) for the required incubation period. 50 μl of dye/Tween80 micelles of same dye concentration was used as control and separate culture plates were treated and incubated for the same time period as in the case of nanocrystals. […]

c1cc2cccc3c4cccc5cccc(c(c1)c23)c54 [perylene]
size of the nanocrystals versus concentration of the dye ([1]; perylene in DMSO at 1 mM, 10 mM or 100 mM, added to water at 4° C. or 80° C.): increase with increasing concentration
size of the nanocrystals versus water temperature ([1]; water at 4° C. or 80° C.): greater at the higher water temperature
intracellular staining pattern [2]: staining the entire cytoplasm with higher dye accumulation in vescicular bodies such as lysosomes
